Test results: patent US20030157502A1, “Chemotherapeutant screening method” (priority 1999, published 2003)
Read-outs that look alike come from different tables or passages of the source. Starred links: 1 amine or outer side, 2 acyl side, 3 side chain; linkers in the order of their positions; H or OH if unused. Positions of bridges follow the written chain, without caps; N, C: chain ends. Non-standard residues stand in square brackets, D forms with d. Residues, ends and D or L forms follow the SMILES beside them. Chains are numbered I, II in the order given. Actinocin(9to1) = Cc1c2oc3c(C)ccc(C(=O)[*:1])c3nc-2c(C(=O)[*:2])c(N)c1=O; NMeV = CN[C@H](C(=O)O)C(C)C; Sar = CNCC(=O)O

Tests used:
[1] = test system: CD95L-mRNA; format: cell-based, human; conditions: for upward regulation of CD95L-mRNA: HepG2 (wt p53) cells; for effect on transcription or translation of the housekeeping gene β-actin: subtoxic concentrations
[2] = test system: CD95L-mRNA; assay: CD95L-mRNA expression by RT-PCR in Hep3B cells; format: cell-based, human; conditions: Hep3B (p53 -/-) cells
[3] = test system: CD95L promoter; assay: CD95L promoter luciferase reporter assay in transiently transfected Hep3B cells; format: cell-based, human; conditions: for effect of the combination on activation of the CD95L promoter: 5-FU plus etoposide, 48 hours
Experimental: Every bar represents the calculated value from treated/untreated cells. The transfection efficiency in A and B was monitored by cotransfection of a renilla Luciferase construct controlled by a basal promoter. […] B: Titration of 5-FU. Hep3B cells were transiently transfected with the −36/+100 promoter construct. […] The cells were lyzed and the luciferase activity was determined.
The cotransfected cells were then treated with 100 μg/ml 5-FU for 48 hours or not treated. The transfection efficiency was normalized by either cotransfection of an expression vector for chloramphenicol transferase (CAT) or renilla luciferase (both controlled by a basal promoter). The luciferase activity was measured using the “dual luciferase” assay (Promega company) in accordance with the manufacturer's instructions, and the CAT activity was determined by means of a commercially available CAT ELISA. Average values (with standard deviation) from different independent experiments are shown. B: “Dual luciferase” assay with Hep3B cells cotransfected with the described CD95L promoter construct and a renilla-luciferase expression vector (as a control for the transfection efficiency). The cells were collected at the indicated times. In addition, the protein content of the transfected cells was determined. The data are average values (with standard deviation) from three samples of a representative experiment. Four independent experiments were carried out.
Hep3B cells were transfected with the −36/+100 construct (CD95L prom wt) or the APX4 construct (mutated −36/+100 CD95L.luc; Cd95L prom mut). The transfection efficiency was monitored by cotransfection with renilla luciferase. Following transfection the cells were treated with 5-FU (100 μg/ml) for 48 hours. The luciferase activity was measured and the multiplication of induction was calculated.
One day before the transfection, the cells were plated out with a density of 0.6×10^6/9 cm Petri dishes. The medium was exchanged two hours before the transfection. The transfection was carried out by means of the method based on calcium phosphate precipitation. In summary, 5 to 40 μg DNA were diluted in 500 μl of a calcium chloride solution. The DNA/calcium chloride mixture was added drop-wise to 500 μl HBS. Precipitation was carried out at room temperature for 20 min., and then the precipitation mixture was added to the culture medium. The precipitate was allowed to stay on the cells for 12 to 24 hours. Thereafter, the cells were shock-treated using 16% glycerin in full medium for 3 min. Following three wash steps using PBS, the cells were cultured in medium supplemented with 20% FCS for at least six hours. Finally, the cells were distributed over 6-well plates, and the chemotherapeutic treatment was started for different periods.
After three wash steps in PBS, the cells were lyzed in 200 μl passive lysis buffer (Promega). Following 20 minutes of incubation at room temperature, the cells were scratched off the plates. The lyzates were subjected to two freeze/thaw cycles and then cell debris was removed by centrifugation.

[4] = test system: c-Jun; assay: c-Jun immunofluorescence in primary human hepatocytes; format: cell-based; conditions: 5-FU 50 μg/ml for 40 hours
Experimental: (§1) Thereafter, the cells were either not treated (A) or treated with 5-FU (100 μg/ml) for 40 hours (B), fixed and stained as described. C+D: Human primary hepatocytes were isolated as described in Example 1 and seeded onto culture dishes. Thereafter, the cells were either not treated (C) or treated with 5-FU (50 μg/ml) for 40 hours (D), fixed and stained with an antibody specific to c-Jun.
Primary human hepatocytes were obtained by means of a 2-step perfusion technique from healthy liver tissue of patients undergoing partial liver resection. For this purpose, a cannula was introduced into a blood vessel of the removed liver tissue and it was perfused with Ca-free and Mg-free “Hank's balanced salt solution (HBSS; Gibco BRL) containing 0.5 mM EDTA and 50 mM HEPES for 15 to 20 min. […] The viability was determined by means of the trypan blue exclusion method. […]
Cultured Hep3B cells or freshly isolated human primary hepatocytes were plated onto Lab-Tek™ chamber slides (Renner GmbH, Darmstadt, Germany). […] Non-specific staining was monitored by incubation with mouse or rabbit immunoglobulins in place of the specific primary antibody or by blocking the primary antibody with the immunogenic peptide. The slides were covered with cover glasses and evaluated by means of a fluorescence microscope. […]

[5] = test system: HepG2 cells; assay: Apoptosis by PI exclusion and forward/side scatter (FSC/SSC); format: cell-based; conditions: 100 μg/ml 5-FU, after 48 hours
Experimental: FIG. 1: Chemotherapeutic agents effect CD95-mediated death in HepG2 cells HepG2 cells were cultured almost up to confluence and then incubated with 100 μg/ml 5-FU over the indicated periods in the presence of either an isotype-adapted control antibody or the anti-CD95L antibody NOK-1 (50 μg/ml). The same experiment was carried out with the addition of CD95-Fc (50 μg/ml). Apoptosis was determined by PI exclusion and measurement of the forward/side scatter (FSC/SSC). The data shown are average values with standard deviations from three samples.
Following the corresponding treatment, the cells were trypsinated with 1% trypsin-EDTA for 5 min., washed twice with PBS and stained using 2.5 μg/ml propidium iodide (PI; Sigma). The stain uptake was measured by means of a “FACScan” cytometer (Becton Dickinson GmbH, Heidelberg, Germany) using the “CellQuest” Software. Changes in the forward/side scatter (FSC/SSC) of the cell population were evaluated as well. For quantifying the DNA fragmentation the supernatants were centrifuged at 200×g, the cells were trypsinated and washed as indicated above. […] The nuclei were then analyzed as regards their DNA content by means of flow cytometry (Nicoletti et al., Journal of Immunological Methods 139 (1991), 271). […]

[6] = test system: SKW6.4 cells; assay: 51Cr release assay, Hep3B effector cells and SKW6.4 target cells; format: cell-based, human; conditions: Hep3B treated with 100 μg/ml 5-FU 48 hours before incubation
Experimental: FIG. 3: The treatment with chemotherapeutic agents results in an upward regulation of functional CD95L A ^51Cr release assay with Hep3B cells as effectors and SKW6.4 cells as target was used. Hep3B cells were cultured in 96-well plates treated with 5-FU. After 48 hours, the chemotherapeutic agents were removed from the culture medium and ^51Cr-labeled SKW6.4 cells were added with either a control antibody or the anti-CD95L antibody NOK-1. Following incubation overnight, the supernatants were measured in a gamma counter. Relative lysis was calculated as indicated in Example 1. E/T is the ratio between effector cells and target cells. Every series of concentration was carried out threefold. The diagram represents an experiment from a series of independent experiments having the same result.
CD95L-mediated cytotoxicity induced by chemotherapy was studied. Hep3B cells (effector cells) were seeded into 96-well plates and treated with chemotherapeutic agents for 48 hours. […] After 12 to 16 hours, 100 μl supernatant of each well were collected and measured in a gamma counter. The specific lysis was calculated in accordance with formula L=(E−S)/(T−S), E representing the gamma counts of the unknown sample, S being the spontaneous lysis of the labeled target cells in the medium without effector cells, and T representing the maximum release of the target cells kept in 2 N HCl. […]

[7] = test system: c-Jun; assay: c-Jun immunofluorescence in Hep3B cells; format: cell-based, human; conditions: 5-FU 100 μg/ml for 40 hours
Experimental: as §1
Cultured Hep3B cells or freshly isolated human primary hepatocytes were plated onto Lab-Tek™ chamber slides (Renner GmbH, Darmstadt, Germany). Following culturing over a period of at least two days, the cells were treated with chemotherapeutic agents. Thereafter, fixation in methanol/acetone (5 min. or 10 sec. at −20° C.) was carried out. Then, the cells were initially incubated at 37° C. for 1 hour with the specific primary antibody against human c-Jun (Santa Cruz GmbH, Heidelberg, Germany), and after three wash steps using PBS, the cells were covered with fluorescein-isothiocyanate-conjugated goat anti-rabbit IgG (Dianova, Hamburg, Germany) for 1 hour. Non-specific staining was monitored by incubation with mouse or rabbit immunoglobulins in place of the specific primary antibody or by blocking the primary antibody with the immunogenic peptide. The slides were covered with cover glasses and evaluated by means of a fluorescence microscope. […]

bleomycin
upward regulation of CD95L-mRNA [1]: regulated upward
upward regulation of CD95L-mRNA [2]: regulated upward

COc1cc([C@@H]2c3cc4c(cc3[C@@H](O[C@@H]3O[C@@H]5CO[C@@H](C)O[C@H]5[C@H](O)[C@H]3O)[C@H]3COC(=O)[C@H]23)OCO4)cc(OC)c1O [etoposide]
upward regulation of CD95L-mRNA [1]: regulate upward
effect of the combination on activation of the CD95L promoter ([3]; Hep3B cells): synergistic effect
upward regulation of CD95L-mRNA [2]: regulate upward

O=c1[nH]cc(F)c(=O)[nH]1 [5-FU, 5-fluorouracil]
AP-1 (c-Jun) nuclear staining [4]: intensive nuclear reactivity
upward regulation of CD95L-mRNA [1]: regulate upward
inducibility of CD95L promoter luciferase constructs (-1204/+100 to -36/+100) ([3]; Hep3B cells transiently transfected): inducible
inducibility of the AP-1-mutated -36/+100 reporter construct ([3]; Hep3B cells, 100 μg/ml 5-FU, 48-hour treatment): almost fully eliminated
effect of the combination on activation of the CD95L promoter ([3]; Hep3B cells): synergistic effect
time of maximum activation of the -36/+100 construct ([3]; Hep3B cells, -36/+100 luciferase construct): 64 h
response of the -36/+19 construct (lacks AP-1 site) ([3]; Hep3B cells, incubation up to 64 hours): did not respond
apoptosis rate [5]: 43%
killing of CD95-bearing SKW6.4 cells by treated Hep3B cells [6]: significant killing
upward regulation of CD95L-mRNA [2]: regulate upward
AP-1 (c-Jun) nuclear staining [7]: widely accumulated AP-1 within the nucleus

C[C@@H]1C[C@@H]([C@H](O)CC2CC(=O)NC(=O)C2)C(=O)[C@@H](C)C1 [cycloheximide]
effect on the upward regulation of CD95L following treatment with chemotherapeutic agents [1]: reduced efficiently
effect on transcription or translation of the housekeeping gene β-actin [1]: no effect

Cc1c2oc3c(C)ccc(C(=O)N[C@@H]4C(=O)N[C@H](C(C)C)C(=O)N5CCC[C@H]5C(=O)N(C)CC(=O)N(C)[C@@H](C(C)C)C(=O)O[C@@H]4C)c3nc-2c(C(=O)N[C@@H]2C(=O)N[C@H](C(C)C)C(=O)N3CCC[C@H]3C(=O)N(C)CC(=O)N(C)[C@@H](C(C)C)C(=O)O[C@@H]2C)c(N)c1=O [actinomycin C1] (I: T[dV]P[Sar][NMeV] / II: T[dV]P[Sar][NMeV]; ester I:1-I:C, II:1-II:C; linker I:N-II:N via Actinocin(9to1))
effect on the upward regulation of CD95L following treatment with chemotherapeutic agents [1]: reduced efficiently
effect on transcription or translation of the housekeeping gene β-actin [1]: no effect
